Patent US9427433B2, “Methods and compositions for enhancing fertility and/or inhibiting pregnancy failure and restoring glucose tolerance” (Queen's University at Kingston, priority 2011, dated 2016)

How the values were obtained:
[1] = Likely blood concentration from the dose regimen described herein (extrapolated); format: in vivo, mouse; conditions: four-fold lower than the rat value
Experimental: The smallest currently available tacrolimus dose is a 0.5 mg capsule and a single oral dose of 0.5 mg tacrolimus results in a maximal blood concentration in humans of 4.6 ng/ml (Mathew et al. Clinical Therapeutics. 2011 33(9):1105-1119). This represents over a seven-fold difference based upon the efficacious blood concentration of tacrolimus in experiments disclosed herein. A dose of 0.1 mg/kg in rats represents does of 0.2 mg/kg in mice, based upon a rat Km=6. This is a four-fold higher dose (0.2 mg/kg) than used in experiments disclosed herein. Therefore, the likely blood concentration from the dose regimen described herein would be four-fold lower (i.e. 0.15 ng/ml blood concentration) and represents an even greater exposure difference (28-fold to 38-fold) compared to existing tacrolimus dose forms for humans. Thus, experiments disclosed herein indicate that a substantially lower dose of macrolide agent such as tacrolimus than routinely administered to date may be useful in the methods of the present invention. By “substantially lower dose” or “low dose therapy” for purposes of the present invention, it is meant a dose of macrolide agent at least 2-fold lower, more preferably at least 4-fold lower, more preferably at least 10-fold lower, than the recommended starting doses of tacrolimus (Prograf) when administered for kidney and liver transplant or heart transplant.

[2] = test system: type 2 diabetes NZO mouse model; assay: HOMA-IR, HOMA-B and insulin sensitivity index (Si); format: in vivo
Experimental: Female mice were administered tacrolimus (0.1 mg/kg or 0.05 mg/kg, n=6/group), vehicle (n=10), pimecrolimus (0.1 mg/kg, n=6) or sirolimus (0.1 mg/kg, n=6) subcutaneously every other day for 3 weeks.
HOMA IR=fasting glucose (mmol/L)×fasting insulin ([…])/22.5 according to the method of Bonora E et al., 2000. Pancreatic β-Cell function (HOMA-B) was calculated according to the method of Tresaco B et al., 2005, HOMA-B=[20×[…]). Insulin sensitivity (Si) was determined according to the method of Matthews D et al., 1985. Si=[basal glucose]−[glucose 15 min]/15).

[3] = test system: type 2 diabetic NZO and DIO mice; assay: Serum testosterone and luteinizing hormone (PCOS phenotype); format: in vivo, mouse
Experimental: Hypertestosteronism (Hyperandrogenism) and low serum levels of Luteinizing hormone (LH) are among the cardinal biochemical features of established PCOS syndrome. […] Serum samples from tacrolimus-treated and saline-injected type 2 diabetic NZO and DIO mice were analyzed for their testosterone and luteinizing hormone (LH) levels in the morning of vaginal plug detection after mating and at 4.5 days later to assess the integrity of their pituitary-ovarian endocrine interactions during successful mating and at embryo implantation.
Twenty NZO and DIO/B6 female mice were maintained on a high fat diet consisted of 60% kcal fat, 20% kcal protein and 20% kcal carbohydrate, with a total energy mass of 5.24 kcal/gm (D12492, Research Diets Inc.; Cedarlane Laboratories, Burlington, Ontario, Canada) starting at 7 weeks of age and maintained on the diet for a total of 12 weeks of study period during which their weekly body weight changes and non-fasting blood glucose values were recorded. Mice which became obese as defined by having a Body mass index (BMI) value of 30, and tested positive for glucose intolerance were selected for an initial treatment episode with tacrolimus after being fed for four weeks with the high fat diet (See FIG. 2). […]

transplant patients = conditions: cited from earlier work
[4] = humans, single oral dose of 0.5 mg; cited from earlier work

C=CC[C@@H]1/C=C(\C)C[C@H](C)C[C@H](OC)[C@H]2O[C@@](O)(C(=O)C(=O)N3CCCC[C@H]3C(=O)O[C@H](/C(C)=C/[C@@H]3CC[C@@H](O)[C@H](OC)C3)[C@H](C)[C@@H](O)CC1=O)[C@H](C)C[C@@H]2OC [tacrolimus]
likely blood concentration [1]: 0.15 ng/mL | insulin resistance (HOMA-IR) ([2]; p<0.001 vs vehicle): significantly reduced insulin resistance | insulin sensitivity (Si) ([2]; p<0.01 vs vehicle): enhanced insulin sensitivity | pancreatic β-cell function (HOMA-B) ([2]; p<0.05 vs vehicle): enhanced pancreatic β-cell function | pituitary-ovarian response and hormonal release to mating ([3]; morning of vaginal plug and 4.5 days later): restored normal pituitary-ovarian response and hormonal release to mating | development of PCOS phenotype (hypertestosteronism, low serum LH) ([3]; short-term administration, high fat diet): prevented the development of PCOS phenotype | safety of use during pregnancy (transplant patients): safe drug for use during pregnancy | maximal blood concentration [4]: 4.6 ng/mL
